Source: ChEMBL document CHEMBL1149340, “Optimization and SAR for dual ErbB-1/ErbB-2 tyrosine kinase inhibition in the 6-furanylquinazoline series” (Bioorg Med Chem Lett, 2006)

Tests used:
BT-474 = test: Inhibition of BT474 cell growth after 72 hrs; assay type: functional, cell-based; settings: Homo sapiens, BT-474, 72 h
NCI-N87 = test: Inhibition of N87 cell growth after 72 hrs; assay type: functional, cell-based; settings: Homo sapiens, NCI-N87, 72 h
HFF = test: Inhibition of HFF cell growth; settings: Homo sapiens
[1] = target: Receptor tyrosine-protein kinase erbB-2 (Homo sapiens, UniProt P04626)
Sequence of Receptor tyrosine-protein kinase erbB-2 (P04626 whole entry): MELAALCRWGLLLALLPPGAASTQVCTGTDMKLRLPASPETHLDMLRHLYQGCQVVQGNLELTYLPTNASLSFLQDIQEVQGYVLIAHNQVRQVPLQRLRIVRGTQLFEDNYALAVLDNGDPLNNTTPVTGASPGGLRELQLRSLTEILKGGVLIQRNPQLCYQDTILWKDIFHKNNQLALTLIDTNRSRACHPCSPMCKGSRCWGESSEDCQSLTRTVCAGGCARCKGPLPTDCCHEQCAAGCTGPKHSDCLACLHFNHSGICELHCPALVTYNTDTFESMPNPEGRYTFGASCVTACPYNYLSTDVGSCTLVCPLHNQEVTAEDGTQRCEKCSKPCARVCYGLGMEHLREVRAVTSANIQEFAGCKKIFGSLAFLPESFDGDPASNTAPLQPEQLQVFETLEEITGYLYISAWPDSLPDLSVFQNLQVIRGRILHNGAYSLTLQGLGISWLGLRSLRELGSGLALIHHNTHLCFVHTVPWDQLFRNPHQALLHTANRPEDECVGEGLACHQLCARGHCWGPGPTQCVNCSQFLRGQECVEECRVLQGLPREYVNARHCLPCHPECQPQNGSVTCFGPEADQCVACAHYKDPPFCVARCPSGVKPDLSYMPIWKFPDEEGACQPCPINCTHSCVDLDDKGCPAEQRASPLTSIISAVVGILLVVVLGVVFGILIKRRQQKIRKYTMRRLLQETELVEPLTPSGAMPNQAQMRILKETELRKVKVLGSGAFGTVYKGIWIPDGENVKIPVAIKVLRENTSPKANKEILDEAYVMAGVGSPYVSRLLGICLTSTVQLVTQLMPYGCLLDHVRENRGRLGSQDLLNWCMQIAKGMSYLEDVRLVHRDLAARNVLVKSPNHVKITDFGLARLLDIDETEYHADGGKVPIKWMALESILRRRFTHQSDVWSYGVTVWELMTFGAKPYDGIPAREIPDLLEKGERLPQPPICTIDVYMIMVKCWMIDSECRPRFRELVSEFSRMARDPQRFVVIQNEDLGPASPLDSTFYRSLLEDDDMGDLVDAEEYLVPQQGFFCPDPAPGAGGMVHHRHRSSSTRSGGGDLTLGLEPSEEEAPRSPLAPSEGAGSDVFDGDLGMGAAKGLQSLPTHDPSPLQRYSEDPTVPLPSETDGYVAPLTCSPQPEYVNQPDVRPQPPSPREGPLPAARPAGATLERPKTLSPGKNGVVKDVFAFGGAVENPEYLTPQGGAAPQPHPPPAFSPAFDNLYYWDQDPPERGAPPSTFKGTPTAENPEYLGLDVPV

[2] = target: Epidermal growth factor receptor (Homo sapiens, UniProt P00533)
Sequence of Epidermal growth factor receptor (P00533 whole entry): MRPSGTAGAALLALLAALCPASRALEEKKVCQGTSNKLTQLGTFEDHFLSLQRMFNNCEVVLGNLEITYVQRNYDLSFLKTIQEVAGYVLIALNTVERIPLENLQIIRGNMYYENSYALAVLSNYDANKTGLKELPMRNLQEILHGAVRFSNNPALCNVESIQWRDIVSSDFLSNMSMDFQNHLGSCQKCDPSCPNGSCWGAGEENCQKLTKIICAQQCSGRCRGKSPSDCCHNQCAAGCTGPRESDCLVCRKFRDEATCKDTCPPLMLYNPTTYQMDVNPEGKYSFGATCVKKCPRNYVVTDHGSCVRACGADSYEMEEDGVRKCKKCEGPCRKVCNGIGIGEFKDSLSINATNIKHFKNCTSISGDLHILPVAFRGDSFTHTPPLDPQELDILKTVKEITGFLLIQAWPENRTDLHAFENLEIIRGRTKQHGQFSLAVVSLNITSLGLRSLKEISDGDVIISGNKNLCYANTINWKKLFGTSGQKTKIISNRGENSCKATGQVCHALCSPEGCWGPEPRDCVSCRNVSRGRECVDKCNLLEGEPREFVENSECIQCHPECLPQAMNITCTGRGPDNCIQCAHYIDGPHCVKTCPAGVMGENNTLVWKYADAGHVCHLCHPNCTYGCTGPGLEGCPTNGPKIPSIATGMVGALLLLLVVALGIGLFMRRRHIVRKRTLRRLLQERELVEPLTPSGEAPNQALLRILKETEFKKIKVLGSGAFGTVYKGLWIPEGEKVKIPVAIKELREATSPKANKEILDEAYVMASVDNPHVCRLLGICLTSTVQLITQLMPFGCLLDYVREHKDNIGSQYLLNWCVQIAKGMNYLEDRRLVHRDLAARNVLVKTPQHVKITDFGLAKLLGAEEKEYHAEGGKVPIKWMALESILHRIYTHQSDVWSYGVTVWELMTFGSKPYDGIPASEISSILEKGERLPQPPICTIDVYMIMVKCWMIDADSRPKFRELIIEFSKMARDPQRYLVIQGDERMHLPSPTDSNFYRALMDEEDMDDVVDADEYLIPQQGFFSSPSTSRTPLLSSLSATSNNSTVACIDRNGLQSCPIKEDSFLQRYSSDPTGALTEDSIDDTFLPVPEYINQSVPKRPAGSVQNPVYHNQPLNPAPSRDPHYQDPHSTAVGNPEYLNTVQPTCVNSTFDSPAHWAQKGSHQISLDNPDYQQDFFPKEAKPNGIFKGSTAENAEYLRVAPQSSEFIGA

HN5 = test: cells; settings: Homo sapiens, HN5, 72 h
Description: Inhibition of HN5 cell growth after 72 hrs

Row | IC50 (BT-474) | IC50 [1] | IC50 [2] | IC50 (HN5) | Compound | IC50 (NCI-N87) | IC50 (HFF)
1 | 80 nM |  |  |  | CS(=O)(=O)CCNCc1ccc(-c2ccc3ncnc(Nc4ccc(OCc5cccc(F)c5)c(Cl)c4)c3c2)o1 [LAPATINIB] | 80 nM | 9900 nM
2 | 10100 nM | 200 nM | 160 nM | 5900 nM | CS(=O)(=O)CCNCc1ccc(-c2ccc3ncnc(Nc4ccc(OCc5ccccc5)c(C(F)(F)F)c4)c3c2)o1 | 6500 nM | 
3 | 4490 nM | 220 nM | 80 nM | 1940 nM | CS(=O)(=O)CCNCc1ccc(-c2ccc3ncnc(Nc4ccc(OCc5cccc(F)c5)c(C(F)(F)F)c4)c3c2)o1 [GW576484X] | 2890 nM | 
4 | 3140 nM | 26 nM | 21 nM | 1600 nM | CCCS(=O)(=O)CCNCc1ccc(-c2ccc3ncnc(Nc4ccc(OCc5cccc(F)c5)c(Cl)c4)c3c2)o1 | 8660 nM | 
5 | 610 nM | 141 nM |  |  | CS(=O)(=O)CCN(Cc1ccccc1)Cc1ccc(-c2ccc3ncnc(Nc4ccc(OCc5cccc(F)c5)c(Cl)c4)c3c2)o1 |  | 
6 | 67 nM | 22 nM | 27 nM |  | CS(=O)(=O)CCN(CC#N)Cc1ccc(-c2ccc3ncnc(Nc4ccc(OCc5cccc(F)c5)c(Cl)c4)c3c2)o1 [GW616030X] |  | > 30000 nM
7 | 280 nM | 26 nM | 27 nM | 650 nM | CS(=O)(=O)CCNCc1ccc(-c2ccc3ncnc(Nc4ccc(OCc5ccccc5)cc4)c3c2)o1 | 870 nM | 
8 | 2130 nM | 100 nM | 43 nM | 2560 nM | CS(=O)(=O)CCNCc1ccc(-c2ccc3ncnc(Nc4ccc(OCc5cccc(Br)c5)cc4)c3c2)o1 | 3460 nM | 
9 | 100 nM | 18 nM | 28 nM | 60 nM | [O-][S+]1CCN(Cc2ccc(-c3ccc4ncnc(Nc5ccc(OCc6cccc(F)c6)c(Cl)c5)c4c3)o2)CC1 | 80 nM | 8180 nM
10 | 3000 nM | 141 nM | 89 nM | 1110 nM | [O-][S+]1CCN(Cc2ccc(-c3ccc4ncnc(Nc5ccc(OCc6cccc(F)c6)c(C(F)(F)F)c5)c4c3)o2)CC1 | 2090 nM | 
11 |  | 38 nM | 50 nM |  | O=S(=O)(CCCCNCc1ccc(-c2ccc3ncnc(Nc4ccc(OCc5ccccc5)c(Cl)c4)c3c2)o1)c1ccccc1 |  | 
12 | 270 nM |  |  |  | CS(=O)(=O)CCNCc1ccc(-c2ccc3ncnc(Nc4ccc(OCc5ccccc5)c(Br)c4)c3c2)o1 | 370 nM | 
13 | 420 nM | 23 nM | 12 nM | 320 nM | [O-][S+]1CCN(Cc2ccc(-c3ccc4ncnc(Nc5ccc(OCc6ccccc6)c(Cl)c5)c4c3)o2)CC1 | 460 nM | 
14 | 770 nM | 31 nM | 24 nM | 840 nM | CS(=O)(=O)CCNCc1ccc(-c2ccc3ncnc(Nc4ccc(OCc5cccc(F)c5)cc4)c3c2)o1 | 860 nM | 
15 | 170 nM | 17 nM | 26 nM |  | CS(=O)(=O)CCOCc1ccc(-c2ccc3ncnc(Nc4ccc(OCc5cccc(F)c5)c(Cl)c4)c3c2)o1 |  | > 30000 nM
16 | 250 nM | 20 nM | 85 nM |  | CCCN(CCS(C)(=O)=O)Cc1ccc(-c2ccc3ncnc(Nc4ccc(OCc5cccc(F)c5)c(Cl)c4)c3c2)o1 |  | 
17 | 1200 nM | 35 nM | 16 nM | 1000 nM | [O-][S+]1CCN(Cc2ccc(-c3ccc4ncnc(Nc5ccc(OCc6ccccc6)c(F)c5)c4c3)o2)CC1 | 1130 nM | 
18 | 2070 nM |  |  |  | COc1cc(Nc2ncnc3ccc(-c4ccc(CNCCS(C)(=O)=O)o4)cc23)ccc1OCc1cccc(F)c1 | 1900 nM | 
19 | 1040 nM | 30 nM | 19 nM | 1070 nM | O=S(=O)(CCNCc1ccc(-c2ccc3ncnc(Nc4ccc(OCc5cccc(F)c5)c(Cl)c4)c3c2)o1)c1ccccc1 | 870 nM | 
20 | 200 nM | 24 nM |  |  | CC(C)S(=O)(=O)CCNCc1ccc(-c2ccc3ncnc(Nc4ccc(OCc5cccc(F)c5)c(Cl)c4)c3c2)o1 | 130 nM | > 30000 nM
21 | 4200 nM | 360 nM | 91 nM | 6900 nM | CS(=O)(=O)CCNCc1ccc(-c2ccc3ncnc(Nc4ccc(OCc5cccc(C(F)(F)F)c5)cc4)c3c2)o1 | 5200 nM | 
22 |  | 28 nM | 25 nM |  | O=S(=O)(CCOCc1ccc(-c2ccc3ncnc(Nc4ccc(OCc5cccc(F)c5)c(Cl)c4)c3c2)o1)c1ccccc1 [GW615311X] |  | 
23 | 250 nM | 22 nM | 18 nM | 250 nM | CS(=O)(=O)CCNCc1ccc(-c2ccc3ncnc(Nc4ccc(OCc5ccccc5)c(Cl)c4)c3c2)o1 | 280 nM | 
